Data on two molecules can be found in US20060229433A1, “Modified antiviral peptides with increased activity and cell membrane affinity” (priority 2003, published 2006).

For assay [1], the system named is HIV-1 89.6 subtype B dualtropic (X4R5). Conditions: PBMC, Table 5.
The subject of assay [2] is HIV-1 NL 4-3. Put plainly: Infection of human peripheral blood lymphocytes (PBL) with NL 4-3 strain, p24 ELISA. The class given is cell-based. In outline: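 PHA-stimulated (3 days) HIV-negative donor PBL in RPMI/10% FCS with IL2 were pretreated 1 h at 37 °C with peptides, infected 1 h with HIV-1 (1000 TCID50/ml), then cultured three weeks with continuous peptide, medium renewed every 3-4 days. Supernatant p24 quantified by ELISA; viability by trypan-blue exclusion; duplicates.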

Assay [3] concerns HIV-1 NL 4-3. Put plainly: HIV-1 infection of C8166 cells (syncytia formation, p24 ELISA) with HIV-1 NL 4-3. The class given is cell-based. More on the design: key: ++, +, (+), (+)− and − represent decreasing numbers of syncitia formed.; ++, +, (+), (+)− and − represent decreasing numbers of syncitia formed.; ++, +, (+), (+)− and − represent decreasing numbers of syncitia formed.; ++, +, (+), (+)− and − represent decreasing numbers of syncitia formed.; ++, +, (+), (+)− and − represent decreasing numbers of syncitia formed. The following applies: Table 2. As to the method: HIV-1 NL 4-3 isolate (Adachi et al., 1986; Barré-Sinoussi et al., 1983) and highly cytopathic Zairian HIV-1 NDK isolate (Ellrodt et al., 1984) was propagated in permissive CEM cells (Nara et al., 1987). Uninfected CEM and C8166 (Salahuddin et al., 1983) were maintained in RPMI 1640 (R10) with ultraglutamine (cambrex, Vervier, Belgium), penicillin (100 U/ml), streptomycin (100 μg/ml), and 10% heat-inactivated fetal calf serum (Cambrex).
Samples of 3×10^5/100 μL C8166 cells were preincubated in 96-well microtiter plates in culture medium containing various concentrations of peptide. After a 1 h treatment at 37° C., 100 μl of diluted viral solution of HIV-1 was added. The cells were exposed to the virus for 1 h at 37° C. at a multiplicity of infection of 1000 TCID50 per ml. The cells were washed three times and cultured at 3×10^5/ml of R10 with the treatment in 24-well plates incubated at 37° C. C8166 culture medium was replaced at Day-4 post-infection. The treatment was permanent before virus adsorption, during virus adsorption and after infection. Assays on C8166 cells have been performed at least twice and in duplicate. Toxicity was evaluated by daily cell count and trypan-blue exclusion assay. Infection of C8166 T-cells with HIV-1 was assessed by virus-induced cytopathic effects (syncytia formation) and by quantification of cell free p24 viral protein in the culture supernatants. Measurements of HIV-1 p24^gag concentration in the culture supernatants were achieved by ELISA (ALLIANCE® HIV-1 p24 kit, Perkin Elmer, life sciences, USA).

Square brackets hold non-standard residues; d marks the D form. Peptide text beside a SMILES is read from it. Ava = NCCCCC(=O)O

For `C[C@H](NC(=O)[C@H](CCCNC(=N)N)NC(=O)CNC(=O)[C@@H]1CCCN1C(=O)CN)C(=O)N[C@@H](Cc1ccccc1)C(=O)NCCCCC(=O)O` [SPC3 monomer valeric acid, GPGRAF-NHCH2CH2CH2CH2COOH] (H-GPGRAF[Ava]-OH; N-terminus assumed), the IC50 in assay [1] was 10 nM; in assay [2] (PBL, NL 4-3 strain, Table 4), 20 nM. In addition, the IC100 in assay [1] turned out to be 0.5 µM; in assay [2] (PBL, NL 4-3 strain, Table 4), 0.1 µM; in assay [2] (text b43 on PBL results) it was 0.1 µM.
For `C[C@H](NC(=O)[C@H](CCCNC(=N)N)NC(=O)CNC(=O)[C@@H]1CCCN1C(=O)CN)C(=O)N[C@@H](Cc1ccccc1)C(=O)NCCCC[C@H](NC(=O)[C@H](Cc1ccccc1)NC(=O)[C@H](C)NC(=O)[C@H](CCCNC(=N)N)NC(=O)CNC(=O)[C@@H]1CCCN1C(=O)CN)C(=O)NCCCC[C@H](NC(=O)[C@H](CCCCNC(=O)[C@H](Cc1ccccc1)NC(=O)[C@H](C)NC(=O)[C@H](CCCNC(=N)N)NC(=O)CNC(=O)[C@@H]1CCCN1C(=O)CN)NC(=O)[C@H](Cc1ccccc1)NC(=O)[C@H](C)NC(=O)[C@H](CCCNC(=N)N)NC(=O)CNC(=O)[C@@H]1CCCN1C(=O)CN)C(=O)NCCCC[C@H](NC(=O)[C@H](CCCCNC(=O)[C@H](CCCCNC(=O)[C@H](Cc1ccccc1)NC(=O)[C@H](C)NC(=O)[C@H](CCCNC(=N)N)NC(=O)CNC(=O)[C@@H]1CCCN1C(=O)CN)NC(=O)[C@H](Cc1ccccc1)NC(=O)[C@H](C)NC(=O)[C@H](CCCNC(=N)N)NC(=O)CNC(=O)[C@@H]1CCCN1C(=O)CN)NC(=O)[C@H](CCCCNC(=O)[C@H](Cc1ccccc1)NC(=O)[C@H](C)NC(=O)[C@H](CCCNC(=N)N)NC(=O)CNC(=O)[C@@H]1CCCN1C(=O)CN)NC(=O)[C@H](Cc1ccccc1)NC(=O)[C@H](C)NC(=O)[C@H](CCCNC(=N)N)NC(=O)CNC(=O)[C@@H]1CCCN1C(=O)CN)C(=O)NCCC(=O)O` [SPC3, (GPGRAF)8-K4-K2-K-βA-OH, reference compound], in assay [1], the IC50 was determined as 60 nM and the IC100 worked out at 0.5 µM. In assay [2] (PBL, NL 4-3 strain, Table 4), it took 10 nM to reach half-maximal inhibition (IC50) and the IC100 worked out at 0.1 µM. This molecule returned an IC100 in assay [2] (on PBL) of 2 µM. Further, the IC100 in assay [2] (text b43 on PBL results) is 2 µM. In assay [3] (1 μM), the “Day 4 syncitia formed” value is “(+)”, the “Day 5 syncitia formed” value was “+”, the “Day 6 syncitia formed” value was “++” and the “Day 7 syncitia formed” value is recorded as “++”. Besides, in assay [3] (5 μM), the “Day 4 syncitia formed” value was “−”, the “Day 5 syncitia formed” value is listed as “(+)”, the “Day 6 syncitia formed” value is given as “+” and the “Day 7 syncitia formed” value was “++”.
